Like-named read-outs stand apart in the source and are kept apart here.

Data set [1] deals with microorganisms. Kind of data set: USP 51 Preservative Efficacy Test (overall outcome). In kind it is cell-based. The following applies: BAK at a concentration of 0.200 mg/mL. An excerpt:
The term “preservative efficacy” or “preservative effectiveness” or “antimicrobial efficacy”, as used herein, means that the composition satisfies USP standards as defined in protocol <51> p. 1681, United States Pharmacopeia, 1995: Antimicrobial effectiveness testing; The United States Pharmacopeia, 32nd rev ed., and the National Formulary, 27th ed. Rockville, Md.: USPC; 2009. For example, the preservative is effective in the product examined if (a) the concentrations of viable bacteria are reduced to not more than 0.1% of the initial concentrations by the fourteenth day; (b) the concentrations of viable yeasts and molds remain at or below the initial concentrations during the first 14 days; and (c) the concentration of each test microorganism remains at or below these designated levels during the remainder of the 28-day test period. Similar criteria are defined for BP standards (Efficacy of Antimicrobial Preservation, Appendix XVI C, 1995), and PhEur standards (Efficacy of Antimicrobial Preservation, Chapter VIII. 14, 1992).
The compositions provided herein may include an effective amount of an antimicrobial preservative. Preservatives can be used to inhibit microbial growth (e.g., bacterial or yeast) in the compositions. An “effective amount” of a preservative is that amount necessary to prevent the growth of microorganisms in the composition. […]

Data set [2] is described as follows: Chemical stability studies at 25° C. and 40° C. in amber glass bottles. Type of data set: physicochemical. On the procedure: Chemical stability studies were performed to determine if the formulation would likely achieve a commercially practical shelf-life. Studies were performed at 25° C. and 40° C. in moisture impermeable amber glass bottles.
For data set [3] the following is noted: cited from earlier work.
The nature of data set [4]: Drug substance description (solubility, hygroscopicity). In kind it is physicochemical. From the text: Bepotastine besilate is a white to off-white, odorless, crystalline powder. The bepotastine drug substance physiological mode of action is inhibition of histamine H1 receptors to relieve typical symptoms associated with allergic rhinitis. […] Fluticasone propionate is a white to off-white, crystalline synthetic trifluorinated corticosteroid used to treat inflammatory symptoms related to asthma and allergic rhinitis.

As for benzalkonium chloride [BAK], the effectiveness as preservative result in data set [1] is given as “effective preservative”.

On to `O=C(O)CCCN1CCC(O[C@@H](c2ccc(Cl)cc2)c2ccccn2)CC1` [Bepotastine, (+)-(S)-4-[4-[(4-chlorophenyl)(2-pyridyl)methoxy]piperidino]butyric acid], for which, in data set [2], the “impurities found during stability evaluation” value is listed as “only impurity found was the ethyl ester precursor of bepotastine”.

As to `CCC(=O)O[C@]1(C(=O)SCF)[C@H](C)C[C@H]2[C@@H]3C[C@H](F)C4=CC(=O)C=C[C@]4(C)[C@@]3(F)[C@@H](O)C[C@@]21C` [fluticasone propionate, Fluticasone propionate], the solubility in water entry in data set [3] is on record as “practically insoluble”; in data set [3] (listed as fluticasone), “insoluble”.

For the compound `O=C(O)CCCN1CCC(O[C@@H](c2ccc(Cl)cc2)c2ccccn2)CC1.O=S(=O)(O)c1ccccc1` [Bepotastine besilate, (+)-(S)-4-[4-[(4-chlorophenyl)(2-pyridyl)methoxy]piperidino]butyric acid], the hygroscopicity result in data set [4] (drug substance powder) was “non-hygroscopic”. Also, the “dissolution in the nasal spray formulation vehicle” value in data set [4] (nasal spray formulation vehicle) is “dissolves readily”.

The values are drawn from US10736841B2, “Bepotastine compositions” (BAUSCH & LOMB INCORPORATED, priority 2011, dated 2020).
